According to article PMC11402896, “Developmental toxicity and estrogenic activity of antimicrobial phenolic-branched fatty acids using in silico simulations and in vivo and in vitro bioassay” (Frontiers in Toxicology, 2024):

What was measured:
[1] = system: estrogen signaling pathway; conditions: cited from earlier work
[2] = system: gastric adenocarcinoma cells; design: method as in Günes-Bayir et al., 2018; conditions: dose-dependent manner at 0–100 µM; ref Günes-Bayir et al., 2018; cited from earlier work
[3] = system: chicken embryos; design: method as in Zhang et al., 2021; conditions: ref Zhang et al., 2021, cited from earlier work; for Mortality rate: chicken embryos, 50 μg/kg dosage
[4] = system: human fibroblast (WS-1); design: method as in Günes-Bayir et al., 2018; conditions: dose-dependent manner at 0–100 µM; ref Günes-Bayir et al., 2018; cited from earlier work
[5] = system: MCF-7 cells; assay: MCF-7 cell proliferation assay (estrogenic activity); type: cell-based; conditions: 10 and 100 nM, p < 0.05, positive control
Method: MCF-7 cells were grown and maintained as previously described ([Peng et al., 2018]). The EA of creosote, creosote-soy BCFA, and iso-oleic acid was investigated at 10 nM to 1 μM. We evaluated EA for newly synthesized phenolic soy BCFAs with a focus on those who have both good performances in antimicrobial activity and low developmental toxicity in the chicken embryo model. Chemicals were dissolved in DMSO and diluted to the test concentrations (0.1% DMSO). No treatment and VC (0.1% DMSO in cell medium) were included as controls. Fresh medium with test compounds was added on day 2 and refreshed every 2 days. After 6-day exposure, cell numbers were measured by MTT assay using a microplate spectrophotometer ([Peng et al., 2018]). The test was repeated in two independent trials with triplicates for each trial, and cell proliferation rates were calculated for each compound.
(§1) All data were reported as the mean ± standard deviation (SD) of at least two independent trials. The MCF-7 cell proliferation rates of each compound at different concentrations were compared using a one-way analysis of variance (ANOVA) followed by Dunnett’s test with the statistical software JMP 16.0. The developmental indexes (REEW, LSI, weights) and TBARS values obtained from chicken embryonic assays were evaluated by a one-way ANOVA followed by Dunnett’s test performed with JMP.

[6] = system: chicken embryo; assay: Chicken embryonic assay (developmental toxicity, liver TBARS); type: in vivo; conditions: for LSI (%) (liver somatic index) / REEW (ratio of embryo to egg weight) / Weights (g) Embryo / Weights (g) Heart / Weights (g) Liver: mean ± SD
Method: In total, 124 fertilized Leghorn eggs were obtained from the University of Delaware research farm. […] On day 6, the eggs were candled, and a hole was drilled for injection of each chemical at two dosage levels, or VC at 0.2 mL. The hole was sealed with Duco Cement, and eggs were placed back in the egg incubator at 38°C and 60% relative humidity. Each test was repeated in two independent trials. The incubation ended on day 18, and the number of dead embryos was recorded during the incubation period. All embryos were dissected and evaluated for deformation, embryo mass, liver mass, heart mass, ratio of embryo to egg weight (REEW), liver somatic index (LSI), and TBARS levels as described in ([Zhang and Wu, 2022]). Each test was repeated in two independent trials and in duplicate for each trial.
as §1
The developmental toxicity of phenolic-soy BCFAs was evaluated at dosages reported for natural phenolics via a chicken embryo model ([Zhang et al., 2021]; [Zhang and Wu, 2022]). In the present study, 0.1% DMSO in PBS was used as VC.

[7] = chicken embryo day 18, dosage 3.1 μg/kg
[8] = chicken embryo day 18, dosage 31 μg/kg
[9] = chicken embryo day 18, egg injection day 6, dosage 3.1 μg/kg
[10] = chicken embryo day 18, egg injection day 6, dosage 31 μg/kg
[11] = chicken embryo day 18, egg injection day 6, dosage 31 μg/kg, listed as phenol

Structure (SMILES): Cc1ccc(C(C)C)cc1O [Carvacrol]
- Estrogenic activity (EA) ([1]; at 10^–12 M, ref Zhang et al., 2021): weak EA
- Reactive oxygen species generation [2]: induced reactive oxygen species generation
- TBARS levels in fetal chicken liver ([3]; 50 μg/kg): significantly increased TBARS levels
- Mortality rate [3]: 45.5%
- Reactive oxygen species generation [4]: induced reactive oxygen species generation

Structure (SMILES): C[C@]12CC[C@@H]3c4ccc(O)cc4CC[C@H]3[C@@H]1CC[C@@H]2O [E2, 17β-Estradiol]
- Cell proliferation rate compared with no treatment and VC [5]: significantly increased cell proliferation rates
- Concentration of highest EA ([1]; across the test range from 10^–15 to 10^–4 M, ref Peng et al., 2018): 10 nM
- Concentration of peak EA ([1]; our previous findings, ref not given): 10^−9 M

Structure (SMILES): Oc1ccccc1 [Phenol]
- LSI (%) (liver somatic index) [6, 7]: 2.20 ± 0.25%
- REEW (ratio of embryo to egg weight) [6, 7]: 0.39 ± 0.014
- Weights (g) Embryo [6, 7]: 23.61 ± 2.74 g
- Weights (g) Heart [6, 7]: 0.21 ± 0.03 g
- Weights (g) Liver [6, 7]: 0.52 ± 0.12 g
- LSI (%) (liver somatic index) [6, 8]: 2.23 ± 0.23%
- REEW (ratio of embryo to egg weight) [6, 8]: 0.36 ± 0.029
- Weights (g) Embryo [6, 8]: 22.04 ± 2.54 g
- Weights (g) Heart [6, 8]: 0.22 ± 0.01 g
- Weights (g) Liver [6, 8]: 0.52 ± 0.04 g
- Malformation rate (%) [6, 9]: 0.0 (0) %
- Mortality rate (%) [6, 9]: 0.0 (0) %
- Mortality rate (%) ([6]; chicken embryo day 18, egg injection day 6, dosage 3.1 μg/kg, listed as phenol): no mortality
- Malformation rate (%) [6, 10]: 12.5 (1) %
- Mortality rate (%) [6, 10]: 0.0 (0) %
- Malformation rate (%) [6, 11]: deformed embryos (stunting) were observed
- Mortality rate (%) [6, 11]: no mortality

Structure (SMILES): Cc1ccc(C(C)C)c(O)c1 [Thymol]
- Mortality rate [3]: no death was found
